This data set can be described thus: solvent given as SMILES.

Molecules are shown by their SMILES.

In turn, `c1cc2c3c(cccc3c1)-c1c-2c2ccccc2c2ccccc12` gave an absorption maximum (in CCCCCCC) of 397 nm. Turning to `CC(C)(C)c1ccc2c(c1)c1cc(C(C)(C)C)ccc1n2-c1ccc2oc3nc4oc5ccc(C(F)(F)F)cc5c4cc3c2c1`, the absorption maximum is given as 343 nm (in C1CCCCC1); 338 nm (in C1CCOC1); 336 nm (in CC#N); 337 nm (in CS(C)=O); 343 nm (in Cc1ccccc1); 345 nm (in ClC(Cl)Cl). Consider `CCOC(=O)c1ccccc1-c1c2ccc(=[N+](CC)CC)cc-2oc2cc(N(CC)CC)ccc12`, for which the absorption maximum (in CC#N) came to 555 nm, the absorption maximum (in CCO) was 541 nm, the absorption maximum (in CN(C)C=O) was 560 nm and the absorption maximum (in O) came out at 552 nm. As for `CN(C)c1ccc2c(c1)[Si](C)(C)C1=CC(=[N+](C)C)C=CC1=C2`, the absorption maximum amounted to 636 nm (in CO) and 634 nm (in O).

For the molecule `N#Cc1cc(-c2ccccc2)c(N2c3ccccc3Oc3ccccc32)c(-c2ccccc2)c1`, the absorption maximum (in C1CCCCC1) is on record as 405 nm. Regarding `Cc1cc(-c2ccc(-c3nc4ccccc4[nH]3)cc2)c(C)cc1-c1ccc(-c2nc3ccccc3[nH]2)cc1`, the absorption maximum (in CN(C)C=O) is on record as 323 nm. As for `Cc1c(COC(=O)c2ccccc2)n2c(OCC(=O)c3ccccc3)c(C)c(=O)n2c1=O`, the absorption maximum (in CCO) is 381 nm. `O=P1(c2ccccc2)C(c2ccc(N(c3ccccc3)c3ccccc3)cc2)=Cc2ccccc21` (configuration not stated) had an absorption maximum (in C1CCOC1) of 408 nm; an absorption maximum (in CC#N) of 407 nm; an absorption maximum (in CN(C)C=O) of 410 nm; an absorption maximum (in Cc1ccccc1) of 413 nm; an absorption maximum (in ClC(Cl)Cl) of 418 nm; an absorption maximum (in ClCCl) of 415 nm. Under “in ClCCl”, `O=P(c1ccccc1)(c1ccccc1)c1cccc(-c2nc3ccccc3n2-c2cccc(P(=O)(c3ccccc3)c3ccccc3)c2)c1` displayed an absorption maximum of 304 nm. With `CCN(CC)c1ccc2cc(-c3cn4cc5ccccc5cc4n3)c(=O)oc2c1`, the absorption maximum (in ClC(Cl)Cl) came to 434 nm. `CC(C)(C)C#Cc1ccc2c3cccc4cccc(c5cccc1c52)c43`: the absorption maximum (in C1CCCCC1) was found to be 455 nm. As to `c1ccc(-n2c3c(c4c2-c2ccccc2C42c4ccccc4-c4ccccc42)C2(c4ccccc4-c4ccccc42)c2ccccc2-3)cc1`, the absorption maximum (in C1CCOC1) came out at 375 nm. With `CC(=O)[B-]1(C(C)=O)OC(C)=CC(c2ccc3ccccc3c2)=[O+]1`, the absorption maximum is 380 nm (in CC#N) and 380 nm (in ClC(Cl)(Cl)Cl). Under “in ClCCl”, `O=S1(=O)C2=C(c3ccccc31)C1(c3ccccc32)c2ccccc2-c2sc3ccccc3c21` (configuration not stated) gave an absorption maximum of 360 nm. Molecule `c1cc2ccc3ccc4cc3c2cc1c1ccc2c(c1)c1cc(ccc1[C@]13OCCO[C@]21OCCO3)c1ccc2c(c1)c1cc4ccc1[C@]13OCCO[C@]21OCCO3` yielded an absorption maximum (in Cc1ccccc1) of 353 nm.

Consider `COc1c2ccccc2c(OC)c2c1c1ccc(F)cc1n2C`, for which the absorption maximum is recorded as 395 nm (in C1CCCCC1), 398 nm (in CC#N), 396 nm (in CO) and 398 nm (in ClCCl). With `CC(C)(C)C#Cc1cc2c(C#CC(C)(C)C)c(C#CC(C)(C)C)c3cc(C#CC(C)(C)C)cc4c(C#CC(C)(C)C)c(C#CC(C)(C)C)c(c1)c2c34`, the absorption maximum (in ClCCl) came to 383 nm.

For the molecule `C#Cc1ccc(-c2nc(-c3ccc(C#C)s3)nc(-c3ccc(C#C)s3)n2)s1`, where the note is “in ClCCl”, the absorption maximum is 348 nm. Still for that read-out and setting: in the case of `COc1ccc(-c2ccc(/C=C/c3cnc4ccccc4n3)cc2)cc1` it was 379 nm. In the case of `CC1=CC(/C=C/c2ccc3ccc4cccc5ccc2c3c45)=[N+]2C1=C(c1ccccc1)c1c(C)cc(/C=C/c3ccc4ccc5cccc6ccc3c4c56)n1[B-]2(F)F`, the absorption maximum (in CC1CCCO1) was 691 nm. Regarding `FC(F)(F)c1cc2n(n1)[B-]1(c3ccccc3Oc3ccccc31)[n+]1ccc3ccccc3c1-2`, the absorption maximum is given as 375 nm (in C1CCCCC1), 378 nm (in Cc1ccccc1) and 372 nm (in ClCCl). Take `Cc1nc2cccc(-c3nc4ccccc4[nH]3)c2c(=O)[nH]1`: the absorption maximum (in CN(C)C=O) is on record as 313 nm.

(Values after the Deep4Chem optical property database.)
